Calls of active or inactive are those of the source. The calls are words filed in the database; no cut-off is given here.
Assays:
HCT-116 = test: Phototoxicity against human HCT116 cells at 1 uM after 24 hrs followed by halogen light irradiation by MTS assay; assay type: functional, cell-based
HeLa [1] = test: Phototoxicity against human HeLa cells at 1 uM after 24 hrs followed by halogen light irradiation by MTS assay; assay type: functional, cell-based
[2] = Dark toxicity against human HeLa cells assessed as cell viability at 1 uM after 24 hrs by MTS assay; assay type: cell-based; settings: read-out: Survival
HeLa [3] = test: Cellular uptake in human HeLa cells at 1 uM after 24 hrs by fluorescence microscopy; assay type: ADME, cell-based
[4] = Dark toxicity against human HCT116 cells assessed as cell viability at 1 uM after 24 hrs by MTS assay; assay type: cell-based, HCT-116; settings: read-out: Survival

| SMILES | Activity (HCT-116) | Activity (HeLa [1]) | viability at 24 h, 1 µM [2] | Drug uptake (HeLa [3]) | viability at 24 h, 1 µM [4] |
| --- | --- | --- | --- | --- | --- |
| CC1(C)O[C@H]2[C@@H](O1)[C@@H](c1c3nc(c(-c4ccc([N+](=O)[O-])cc4)c4ccc([nH]4)c([C@H]4O[C@@H]5OC(C)(C)O[C@@H]5[C@H]5OC(C)(C)O[C@H]54)c4nc(c(-c5ccc([N+](=O)[O-])cc5)c5ccc1[nH]5)C=C4)C=C3)O[C@@H]1OC(C)(C)O[C@@H]12 | inactive | inactive | – | – | – |
| CSc1ccc(-c2c3nc(c([C@H]4O[C@@H]5OC(C)(C)O[C@@H]5[C@H]5OC(C)(C)O[C@H]54)c4ccc([nH]4)c(-c4ccc(SC)cc4)c4nc(c([C@H]5O[C@@H]6OC(C)(C)O[C@@H]6[C@H]6OC(C)(C)O[C@H]65)c5ccc2[nH]5)C=C4)C=C3)cc1 | Active | Active | > 90% | Not Active | > 90% |
| CC1(C)O[C@H]2[C@@H](O1)[C@@H](c1c3nc(c(-c4ccc(Cl)cc4)c4ccc([nH]4)c([C@H]4O[C@@H]5OC(C)(C)O[C@@H]5[C@H]5OC(C)(C)O[C@H]54)c4nc(c(-c5ccc(Cl)cc5)c5ccc1[nH]5)C=C4)C=C3)O[C@@H]1OC(C)(C)O[C@@H]12 | inactive | inactive | – | – | – |
| CC1(C)O[C@H]2[C@@H](O1)[C@@H](c1c3nc(c(-c4ccccc4)c4ccc([nH]4)c([C@H]4O[C@@H]5OC(C)(C)O[C@@H]5[C@H]5OC(C)(C)O[C@H]54)c4nc(c(-c5ccccc5)c5ccc1[nH]5)C=C4)C=C3)O[C@@H]1OC(C)(C)O[C@@H]12 | inactive | inactive | – | – | – |
| CC1(C)O[C@H]2[C@@H](O1)[C@@H](c1c3nc(c(-c4c(F)c(F)c(F)c(F)c4F)c4ccc([nH]4)c([C@H]4O[C@@H]5OC(C)(C)O[C@@H]5[C@H]5OC(C)(C)O[C@H]54)c4nc(c(-c5c(F)c(F)c(F)c(F)c5F)c5ccc1[nH]5)C=C4)C=C3)O[C@@H]1OC(C)(C)O[C@@H]12 | inactive | inactive | – | – | – |
| CC1(C)O[C@H]2[C@@H](O1)[C@@H](c1c3nc(c(-c4ccsc4)c4ccc([nH]4)c([C@H]4O[C@@H]5OC(C)(C)O[C@@H]5[C@H]5OC(C)(C)O[C@H]54)c4nc(c(-c5ccsc5)c5ccc1[nH]5)C=C4)C=C3)O[C@@H]1OC(C)(C)O[C@@H]12 | Active | Active | > 90% | Active | > 90% |
| CC1(C)O[C@H]2[C@@H](O1)[C@@H](C=O)O[C@@H]1OC(C)(C)O[C@@H]12 | inactive | inactive | – | – | – |
| COc1cccc(OC)c1-c1c2nc(c([C@H]3O[C@@H]4OC(C)(C)O[C@@H]4[C@H]4OC(C)(C)O[C@H]43)c3ccc([nH]3)c(-c3c(OC)cccc3OC)c3nc(c([C@H]4O[C@@H]5OC(C)(C)O[C@@H]5[C@H]5OC(C)(C)O[C@H]54)c4ccc1[nH]4)C=C3)C=C2 | inactive | inactive | – | – | – |
| COc1ccc(-c2c3nc(c([C@H]4O[C@@H]5OC(C)(C)O[C@@H]5[C@H]5OC(C)(C)O[C@H]54)c4ccc([nH]4)c(-c4ccc(OC)cc4)c4nc(c([C@H]5O[C@@H]6OC(C)(C)O[C@@H]6[C@H]6OC(C)(C)O[C@H]65)c5ccc2[nH]5)C=C4)C=C3)cc1 | Active | Active | > 90% | Not Active | > 90% |
| CC1(C)O[C@H]2[C@@H](O1)[C@@H](c1c3nc(c(-c4ccc(OC(F)(F)F)cc4)c4ccc([nH]4)c([C@H]4O[C@@H]5OC(C)(C)O[C@@H]5[C@H]5OC(C)(C)O[C@H]54)c4nc(c(-c5ccc(OC(F)(F)F)cc5)c5ccc1[nH]5)C=C4)C=C3)O[C@@H]1OC(C)(C)O[C@@H]12 | inactive | inactive | – | – | – |

Source: ChEMBL document CHEMBL3217648, “Glycosylated porphyrin derivatives and their photodynamic activity in cancer cells” (Medchemcomm, 2011)
